Test results reported in ChEMBL document CHEMBL3580586, “Novel azoles as potent and selective cannabinoid CB2 receptor agonists” (Bioorg Med Chem Lett, 2014).

Experiments:
Cannabinoid receptor 2 [1] = biological target: T1, Cannabinoid receptor 2 (Homo sapiens, UniProt P34972); experiment: Displacement of [3H]CP55940 from human CB2 receptor expressed in CHO-K1 cell membrane by competitive displacement assay; assay type: cell membranes
Cannabinoid receptor 1 [2] = biological target: T2, Cannabinoid receptor 1 (Homo sapiens, UniProt P21554); experiment: Displacement of [3H]CP55940 from human CB1 receptor expressed in CHO-K1 cell membrane by competitive displacement assay; assay type: cell membranes
Homo sapiens [3] = species on record: Homo sapiens; experiment: Selectivity ratio of Ki for human CB1 receptor to Ki for human CB2 receptor
Cannabinoid receptor 2 [4] = biological target: T1, Cannabinoid receptor 2; experiment: Agonist activity at human CB2 receptor expressed in CHO-K1 cells assessed as inhibition of forskolin-stimulated cAMP production; assay type: functional, cell-based
Cannabinoid receptor 1 [5] = biological target: T2, Cannabinoid receptor 1; experiment: Agonist activity at human CB1 receptor expressed in CHO-K1 cells assessed as inhibition of forskolin-stimulated cAMP production; assay type: functional, cell-based
Homo sapiens [6] = species on record: Homo sapiens; experiment: Selectivity ratio of EC50 for human CB1 receptor to EC50 for human CB2 receptor
[7] = Antioxidant activity assessed as inhibition of lipid peroxidation; assay type: physicochemical

T1 sequence (P34972 whole entry): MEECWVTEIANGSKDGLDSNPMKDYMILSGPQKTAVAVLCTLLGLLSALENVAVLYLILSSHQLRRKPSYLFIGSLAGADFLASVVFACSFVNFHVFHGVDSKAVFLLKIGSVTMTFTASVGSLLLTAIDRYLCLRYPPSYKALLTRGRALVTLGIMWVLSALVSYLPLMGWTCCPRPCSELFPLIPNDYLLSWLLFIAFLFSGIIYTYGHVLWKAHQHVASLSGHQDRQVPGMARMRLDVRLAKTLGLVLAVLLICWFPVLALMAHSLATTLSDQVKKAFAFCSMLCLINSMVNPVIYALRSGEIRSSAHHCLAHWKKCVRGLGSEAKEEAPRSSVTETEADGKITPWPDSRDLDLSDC
T2 sequence (P21554 whole entry): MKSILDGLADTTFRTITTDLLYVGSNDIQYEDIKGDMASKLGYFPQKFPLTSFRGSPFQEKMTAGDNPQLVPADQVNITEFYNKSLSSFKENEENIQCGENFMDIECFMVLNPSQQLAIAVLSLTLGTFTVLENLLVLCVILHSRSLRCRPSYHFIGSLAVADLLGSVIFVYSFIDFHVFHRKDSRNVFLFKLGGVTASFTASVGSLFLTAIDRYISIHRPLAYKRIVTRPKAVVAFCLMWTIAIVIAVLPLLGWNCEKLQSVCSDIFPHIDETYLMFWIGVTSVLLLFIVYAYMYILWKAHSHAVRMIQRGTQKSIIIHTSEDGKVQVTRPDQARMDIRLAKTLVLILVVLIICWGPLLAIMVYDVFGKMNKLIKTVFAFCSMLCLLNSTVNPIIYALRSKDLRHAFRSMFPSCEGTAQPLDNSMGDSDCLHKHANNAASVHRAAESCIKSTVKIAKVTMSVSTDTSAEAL

SMILES	Ki (Cannabinoid receptor 2 [1]) [nM]	Ki (Cannabinoid receptor 1 [2]; cho-k1)	Ki (Cannabinoid receptor 1 [2]; read-out: Ki) [nM]	Selectivity ratio (Homo sapiens [3])	EC50 (Cannabinoid receptor 2 [4]) [nM]	EC50 (Cannabinoid receptor 1 [5]) [nM]	Selectivity ratio (Homo sapiens [6])	IC50 [7] [nM]
CN(C)Cc1nc(-c2cc(C(C)(C)C)c(O)c(C(C)(C)C)c2)cs1	6240	Not Active	–	–	–	–	–	–
CNC1(c2nc(-c3cc(C(C)(C)C)c(O)c(C(C)(C)C)c3)cs2)CCOCC1	144	–	2270	16	–	–	–	–
CN1CCCCC1Cn1cc(C(=O)c2cc([N+](=O)[O-])ccc2I)c2ccccc21 (stereo not given)	21.8	–	2080	95	16.4	1040	63	–
CN(C)C1(c2nc(-c3cc(C(C)(C)C)c(O)c(C(C)(C)C)c3)co2)CCOCC1	51.6	–	817	16	43.6	1400	32	–
CCN(CC)C1(c2nc(-c3cc(C(C)(C)C)c(O)c(C(C)(C)C)c3)cs2)CCOCC1	77.4	–	3300	43	72	4040	56	–
CN(C)C1(c2nc(-c3cc(C(C)(C)C)c(O)c(C(C)(C)C)c3)cs2)CCSCC1	81.7	–	2340	29	59.1	2380	40	–
CN(C)C1(c2nc(-c3cc(C(C)(C)C)c(O)c(C(C)(C)C)c3)cs2)CCOCC1	29.4	–	857	30	42	2670	64	500
CN(C)C1(c2nc(-c3cc(C(C)(C)C)cc(C(C)(C)C)c3)cs2)CCOCC1	127	–	4710	37	–	–	–	–
CC(C)(C)c1cc(-c2csc(C3(N)CCOCC3)n2)cc(C(C)(C)C)c1O	2700	–	6960	2.6	–	–	–	–
CC(C)(C)c1cc(-c2csc(C3(N4CCCCC4)CCOCC3)n2)cc(C(C)(C)C)c1O	49.7	–	2170	43	40	2260	56	–
CC(C)(C)c1cc(-c2csc(C3(N4CCOCC4)CCOCC3)n2)cc(C(C)(C)C)c1O	177	Not Active	–	–	–	–	–	–
